Consider 12 compounds from US20250163048A1 (Tango Therapeutics, Inc., priority 2022, published 2025).

For assay [1], the system named is HAP1 MTAP-intact cell line. Kind of assay: SDMA in-cell western assay, HAP1 MTAP-intact. As to conditions: Homo sapiens.
The test system of another assay is MTAP-deleted cell line. Kind of assay: viability assay for the MTAP-deleted cell line. The format is cell-based. Particulars: Homo sapiens, HAP1, viability assay.
The subject of assay [2] is HAP1 MTAP-deleted cell line. Briefly: SDMA in-cell western assay, HAP1 MTAP-deleted. Particulars: for IC50 / IC90: Homo sapiens; for Hap1 MTAP intact/deleted ratio: IC50 ratio between HAP1 MTAP-intact and HAP1 MTAP-deleted cell line.
The mark [3] stands for this setting: HAP1, read-out: Hap1 MTAP intact IC50, SDMA in-cell western assay, HAP1 MTAP-intact cell line.
[4] abbreviates: HAP1, read-out: Hap1 MTAP deleted IC50, SDMA in-cell western assay, HAP1 MTAP-deleted cell line.
The mark [5] stands for this setting: HAP1, read-out: Hap1 MTAP deleted IC90, SDMA in-cell western assay, HAP1 MTAP-deleted cell line.
[6] abbreviates: HAP1, read-out: Hap1 MTAP intact IC50, SDMA in-cell western, HAP1 MTAP-intact cell line.
Where [7] appears, read: HAP1, read-out: Hap1 MTAP deleted IC50, SDMA in-cell western, HAP1 MTAP-deleted cell line.
Setting [8] is: HAP1, read-out: Hap1 MTAP deleted IC90, SDMA in-cell western, HAP1 MTAP-deleted cell line.

Where two headings read alike, the source gives them in different places. Some results are limits rather than exact numbers.

The IC50 is the midpoint of a concentration-inhibition curve. A word on the IC90: it is the point of the concentration-response curve where the effect stands at 90%. Consider `C[C@H]1CC[C@H](c2ccnc(OC3CC3)c2)N(C(=O)C(=O)Nc2cnc(N)c3cn[nH]c23)C1` (racemic) [Compound 247, N-(4-Amino-2H-pyrazolo[4,3-c]pyridin-7-yl)-2-oxo-2-[rac-(2R,5S)-2-[2-(cyclopropoxy)-4-pyridyl]-5-methyl-1-piperidyl]acetamide], for which the IC50 was 0.005 to 0.05 µM in assay [1] (setting [3]), < 0.1 µM in the assay with MTAP-deleted cell line and < 0.005 µM in assay [2] (setting [4]). Moreover, in assay [2] (setting [5]), the IC90 is < 0.075 µM. Besides, the “Hap1 MTAP intact/deleted ratio” value in assay [2] (SDMA in-cell western assay) is “B (“B” indicates an IC50 ratio greater than or equal to 15 fold but lower than 30 fold)”.
On to `CCn1ncc2cc([C@H]3CC[C@H](C)CN3C(=O)C(=O)Nc3cnc(N)c4cn[nH]c34)ccc21` (racemic) [Compound 189, N-(4-Amino-1H-pyrazolo[4,3-c]pyridin-7-yl)-2-oxo-2-[rac-(2R,5S)-2-(1-ethylindazol-5-yl)-5-methyl-1-piperidyl]acetamide], for which the IC50 in assay [1] (setting [6]) was 0.005 to 0.05 µM; in the assay on MTAP-deleted cell line it was < 0.1 µM; in assay [2] (setting [7]) it was < 0.005 µM. Moreover, in assay [2] (setting [8]), the IC90 was < 0.075 µM. The “Hap1 MTAP intact/deleted ratio” value in assay [2] (SDMA in-cell western) is “C (“C” indicates an IC50 ratio of less than 15 fold)”.
For `C[C@H]1CC[C@H](c2ccc3sc([C@@H]4CCN(C)C[C@H]4C)nc3c2)N(C(=O)C(=O)Nc2cncc3cn[nH]c23)C1` (relative stereo) [Compound 71, 2-oxo-N-(1H-pyrazolo[4,3-c]pyridin-7-yl)-2-[(2R,5S)-5-methyl-2-[2-[rel-(3S,4R)-1,3-dimethyl-4-piperidyl]-1,3-benzothiazol-5-yl]-1-piperidyl]acetamide], in that order: 0.005 to 0.05 µM, < 0.1 µM, < 0.005 µM, < 0.075 µM and “C (“C” indicates an IC50 ratio of less than 15 fold)”.
For `CC1=C(c2nc3cc([C@H]4CC[C@H](C)CN4C(=O)C(=O)Nc4cncc5cn[nH]c45)ccc3s2)CCN(C)C1` [Compound 165] the same measures were > 0.05 µM, < 0.1 µM, < 0.005 µM, < 0.075 µM and “A (“A” indicates an IC50 ratio greater than or equal to 30 fold)”.
Regarding `C[C@H]1CC[C@H](c2ccc3nn(C4CCN(C)CC4)cc3c2)N(C(=O)C(=O)Nc2cncc3c(N)nccc23)C1` [Compound 51, N-(8-amino-2,7-naphthyridin-4-yl)-2-oxo-2-[(2R,5S)-5-methyl-2-[2-(1-methyl-4-piperidyl)indazol-5-yl]-1-piperidyl]acetamide], the IC50 in assay [1] (setting [6]) was > 0.05 µM; in the assay on MTAP-deleted cell line, 0.1 to 1 µM; in assay [2] (setting [7]), 0.005 to 0.05 µM. Also, the IC90 in assay [2] (setting [8]) is > 0.125 µM. In addition, the “Hap1 MTAP intact/deleted ratio” value in assay [2] (SDMA in-cell western) was “A (“A” indicates an IC50 ratio greater than or equal to 30 fold)”.
Take `C[C@@H]1C[C@@H](c2nc3cc([C@H]4CC[C@H](C)CN4C(=O)C(=O)Nc4cncc5cn[nH]c45)ccc3s2)CN(C)C1` (single isomer, unassigned) [Compound 171]: the IC50 in assay [1] (setting [6]) is > 0.05 µM; with MTAP-deleted cell line, < 0.1 µM; in assay [2] (setting [7]), < 0.005 µM. The IC90 in assay [2] (setting [8]) was < 0.075 µM. The “Hap1 MTAP intact/deleted ratio” value in assay [2] (SDMA in-cell western) was “B (“B” indicates an IC50 ratio greater than or equal to 15 fold but lower than 30 fold)”.
As to `C[C@H]1CC[C@H](c2ccccc2)N(C(=O)C(=O)Nc2cnc(N)c3c2OCC3)C1` [Compound 214], the IC50 in assay [1] (setting [3]) is > 0.05 µM; in the assay with MTAP-deleted cell line, 0.1 to 1 µM; in assay [2] (setting [4]) it was 0.005 to 0.05 µM. In assay [2] (setting [5]), the IC90 was > 0.125 µM. The “Hap1 MTAP intact/deleted ratio” value in assay [2] (SDMA in-cell western assay) is “B (“B” indicates an IC50 ratio greater than or equal to 15 fold but lower than 30 fold)”.
As to `C[C@H]1CC[C@H](c2ccc3sc([C@@H](C)CN(C)C)nc3c2)N(C(=O)C(=O)Nc2cncc3c(N)nccc23)C1` (relative stereo) [Compound 76, N-(8-amino-2,7-naphthyridin-4-yl)-2-((2R,5S)-2-(2-((S)-1-(dimethylamino)propan-2-yl)benzo[d]thiazol-5-yl)-5-methylpiperidin-1-yl)-2-oxoacetamide], the IC50 was > 0.05 µM in assay [1] (setting [6]), < 0.1 µM with MTAP-deleted cell line and 0.005 to 0.05 µM in assay [2] (setting [7]). The IC90 in assay [2] (setting [8]) is < 0.075 µM. The “Hap1 MTAP intact/deleted ratio” value in assay [2] (SDMA in-cell western) is “A (“A” indicates an IC50 ratio greater than or equal to 30 fold)”.
`COc1cncc([C@H]2CC[C@H](C)CN2C(=O)C(=O)Nc2cnc(N)c3cn[nH]c23)c1` (racemic) [Compound 261, N-(4-Amino-1H-pyrazolo[4,3-c]pyridin-7-yl)-2-oxo-2-[rac-(2R,5S)-2-(5-methoxy-3-pyridyl)-5-methyl-1-piperidyl]acetamide]: the IC50 was > 0.05 µM in assay [1] (setting [3]), < 0.1 µM with MTAP-deleted cell line and < 0.005 µM in assay [2] (setting [4]). For the same compound, the IC90 in assay [2] (setting [5]) was < 0.075 µM. In assay [2] (SDMA in-cell western assay), the “Hap1 MTAP intact/deleted ratio” value was “A (“A” indicates an IC50 ratio greater than or equal to 30 fold)”.
With `C[C@H]1CC[C@H](c2ccc3sc(C4CC5(C4)CN(C)C5)nc3c2)N(C(=O)C(=O)Nc2cncc3c(N)nccc23)C1` [Compound 108, N-(8-amino-2,7-naphthyridin-4-yl)-2-((2R,5S)-5-methyl-2-(2-(2-methyl-2-azaspiro[3.3]heptan-6-yl)benzo[d]thiazol-5-yl)piperidin-1-yl)-2-oxoacetamide], the IC50 was > 0.05 µM in assay [1] (setting [6]), < 0.1 µM with MTAP-deleted cell line and < 0.005 µM in assay [2] (setting [7]). For the same compound, the IC90 in assay [2] (setting [8]) was in the range of 0.075 to 0.125 µM. Also, the “Hap1 MTAP intact/deleted ratio” value in assay [2] (SDMA in-cell western) was “B (“B” indicates an IC50 ratio greater than or equal to 15 fold but lower than 30 fold)”.
For `C[C@H]1CC[C@H](c2cccc(N3CCN(C)CC3)c2)N(C(=O)C(=O)Nc2cnc(N)c3cn[nH]c23)C1` [Compound 25, N-(4-amino-1H-pyrazolo[4,3-c]pyridin-7-yl)-2-((2R,5S)-5-methyl-2-(3-(4-methylpiperazin-1-yl)phenyl)piperidin-1-yl)-2-oxoacetamide], in that order: 0.005 to 0.05 µM, < 0.1 µM, < 0.005 µM, < 0.075 µM and “C (“C” indicates an IC50 ratio of less than 15 fold)”.
`C[C@H]1CC[C@H](c2ccc3sc(C4(O)CCN(C)CC4)nc3c2)N(C(=O)C(=O)Nc2cncc3cn[nH]c23)C1` [Compound 19, 2-((2R,5S)-2-(2-(4-hydroxy-1-methylpiperidin-4-yl)benzo[d]thiazol-5-yl)-5-methylpiperidin-1-yl)-2-oxo-N-(1H-pyrazolo[4,3-c]pyridin-7-yl)acetamide]: the IC50 is 0.005 to 0.05 µM in assay [1] (HAP1, read-out: Hap1 MTAP intact IC50); < 0.1 µM in the assay with MTAP-deleted cell line; < 0.005 µM in assay [2] (HAP1, read-out: Hap1 MTAP deleted IC50). Besides, the IC90 in assay [2] (HAP1, read-out: Hap1 MTAP deleted IC90) was < 0.075 µM. Further, the “Hap1 MTAP intact/deleted ratio” value in assay [2] (SDMA in-cell western) is given as “C (“C” indicates an IC50 ratio of less than 15 fold)”.
